The record followed here is article PMC7531004, “Discovery of gramicidin A analogues with altered activities by multidimensional screening of a one-bead-one-compound library” (Nature Communications, 2020).

Series [1] can be described thus: H+/Na+ transport assay of bead-derived peptides (one-point).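 Further: relative to parent gramicidin A activity set to 1.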 Type of series: biochemical. Particulars: bead-derived peptide solution, EYPC/EYPG LUVs. Also on record: key: relative activity; mean of two control wells = 1.00. The procedure, abridged: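 Values are normalized fluorescence, with Triton X-100 defining 100% and untreated LUVs 0%, and the two control wells averaging 1.00. Vesicles carried 1.0 mM pyranine and included egg yolk phosphatidylglycerol. Peptides were incubated with them 30 min at room temperature.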

For series [2], the system named is P388 mouse leukemia cells. As to conditions: 92 h. Summed up: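 P388 cells at 1 × 10^4 cells/mL (final) were exposed to library peptides (stocks diluted 250-fold in RPMI1640/10% FBS) for 92 h at 37 °C, 5% CO2. Viable cells were counted by WST-1/1-methoxy PMS (4 h), absorbance 415 nm, and expressed as cell viability (%).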
The test system of series [3] is Streptococcus pyogenes SSI-9. Description: Antibacterial activity assay of bead-derived peptides (three concentrations). Format: cell-based. Also on record: key: +++: inhibition by the 640-fold diluted peptide solution; ++: inhibition by the 160-fold diluted solution; +: inhibition by the 40-fold diluted solution; -: no inhibition. Particulars: S. pyogenes, bead-derived peptide solution, three concentrations. Summed up: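 Library peptide stock applied undiluted, 4-fold and 16-fold diluted in DMSO to S. pyogenes SSI-9 (2 × 10^5 CFU) in cation-adjusted Mueller Hinton broth with 5% laked horse blood. After 18 h at 37 °C, growth judged by visible cell precipitation.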

Where a SMILES comes first, the peptide text is derived from it. [ ]: non-standard residue; d: D form. The star is where a group is joined. NHCH2CH2OH = OCCN*; For = O=C*

Consider `CC(C)C[C@@H](NC(=O)[C@H](C)NC(=O)CNC(=O)[C@@H](NC=O)C(C)C)C(=O)N[C@@H](C)C(=O)N[C@@H](C(=O)N[C@H](C(=O)N[C@@H](C(=O)N[C@@H](Cc1c[nH]c2ccccc12)C(=O)N[C@@H](C(=O)N[C@@H](Cc1c[nH]c2ccccc12)C(=O)N[C@@H](C(=O)N[C@@H](Cc1c[nH]c2ccccc12)C(=O)N[C@@H](C(=O)N[C@@H](Cc1c[nH]c2ccccc12)C(=O)NCCO)C(C)C)C(C)C)C(C)C)C(C)C)C(C)C)C(C)C` [compound 9992] (For-VGA[dL]A[dV]V[dV]W[dV]W[dV]W[dV]W-NHCH2CH2OH), for which the “H+/Na+ transport activity normalized against the value of 1 (1.00)” value (“H+/Na+ transport activity normalized” for short) in series [1] came to 1.23. This compound registered a cell viability/% in series [2] of 100.0%. In series [3], the antibacterial activity entry was “+”.

On to `CNC(=O)C[C@@H](NC(=O)[C@H](Cc1c[nH]c2ccccc12)NC(=O)[C@H](NC(=O)[C@H](Cc1c[nH]c2ccccc12)NC(=O)[C@@H](CC(C)C)NC(=O)[C@H](Cc1c[nH]c2ccccc12)NC(=O)[C@@H](CC(C)C)NC(=O)[C@@H](NC(=O)[C@@H](CC(C)C)NC(=O)[C@H](C)NC(=O)[C@@H](CC(C)C)NC(=O)[C@H](C)NC(=O)CNC(=O)[C@@H](NC=O)C(C)C)C(C)C)C(C)C)C(=O)N[C@@H](Cc1c[nH]c2ccccc12)C(=O)NCCO` [compound 10008] (For-VGA[dL]A[dL]V[dL]W[dL]W[dV]W[dD](NHMe)W-NHCH2CH2OH), for which, in series [1], the “H+/Na+ transport activity normalized” value stood at 1.15. For the same compound, in series [2], the cell viability/% turned out to be 100.0%. Moreover, the antibacterial activity result in series [3] was “-”.

Consider `CNC(=O)C[C@@H](NC(=O)[C@H](Cc1c[nH]c2ccccc12)NC(=O)[C@@H](CC(C)C)NC(=O)[C@H](Cc1c[nH]c2ccccc12)NC(=O)[C@H](NC(=O)[C@H](Cc1c[nH]c2ccccc12)NC(=O)[C@@H](CC(C)C)NC(=O)[C@@H](NC(=O)[C@H](NC(=O)[C@H](C)NC(=O)[C@@H](CC(C)C)NC(=O)[C@H](C)NC(=O)CNC(=O)[C@@H](NC=O)C(C)C)C(C)C)C(C)C)C(C)C)C(=O)N[C@@H](Cc1c[nH]c2ccccc12)C(=O)NCCO` [compound 10043] (For-VGA[dL]A[dV]V[dL]W[dV]W[dL]W[dD](NHMe)W-NHCH2CH2OH), for which, in series [1], the “H+/Na+ transport activity normalized” value worked out at 1.09. The compound further showed a cell viability/% in series [2] of 56.6%. Besides, in series [3], the antibacterial activity entry is on record as “-”.

Turning to `CC(C)C[C@@H](NC(=O)[C@H](C)NC(=O)[C@H](NC(=O)[C@H](C)NC(=O)CNC(=O)[C@@H](NC=O)C(C)C)C(C)C)C(=O)N[C@H](C(=O)N[C@@H](C(=O)N[C@@H](Cc1c[nH]c2ccccc12)C(=O)N[C@H](CC(C)C)C(=O)N[C@@H](Cc1c[nH]c2ccccc12)C(=O)N[C@@H](C(=O)N[C@@H](Cc1c[nH]c2ccccc12)C(=O)N[C@H](CC(C)C)C(=O)N[C@@H](Cc1c[nH]c2ccccc12)C(=O)NCCO)C(C)C)C(C)C)C(C)C` [compound 10261] (For-VGA[dV]A[dL]V[dV]W[dL]W[dV]W[dL]W-NHCH2CH2OH), the “H+/Na+ transport activity normalized” value in series [1] was 1.05. In series [2], this compound registered a cell viability/% of 46.3%. The antibacterial activity entry in series [3] is on record as “+”.

Take `CC(C)[C@H](NC=O)C(=O)NCC(=O)N[C@@H](C)C(=O)N[C@@H](C(=O)N[C@@H](C)C(=O)N[C@@H](C(=O)N[C@H](C(=O)N[C@@H](C(=O)N[C@@H](Cc1c[nH]c2ccccc12)C(=O)N[C@@H](C(=O)N[C@@H](Cc1c[nH]c2ccccc12)C(=O)N[C@@H](C(=O)N[C@@H](Cc1c[nH]c2ccccc12)C(=O)N[C@@H](C(=O)N[C@@H](Cc1c[nH]c2ccccc12)C(=O)NCCO)C(C)C)C(C)C)C(C)C)C(C)C)C(C)C)C(C)C)C(C)C` [compound 10276] (For-VGA[dV]A[dV]V[dV]W[dV]W[dV]W[dV]W-NHCH2CH2OH): the “H+/Na+ transport activity normalized” value in series [1] is reported as 1.04. Also, the cell viability/% in series [2] was 100.0%. Further, the antibacterial activity entry in series [3] is on record as “+”.

For `CC(C)C[C@@H](NC(=O)[C@H](C)NC(=O)CNC(=O)[C@@H](NC=O)C(C)C)C(=O)N[C@@H](C)C(=O)N[C@H](CC(C)C)C(=O)N[C@H](C(=O)N[C@H](CC(C)C)C(=O)N[C@@H](Cc1c[nH]c2ccccc12)C(=O)N[C@H](CC(C)C)C(=O)N[C@@H](Cc1c[nH]c2ccccc12)C(=O)N[C@H](CC(C)C)C(=O)N[C@@H](Cc1c[nH]c2ccccc12)C(=O)N[C@@H](C(=O)N[C@@H](Cc1c[nH]c2ccccc12)C(=O)NCCO)C(C)C)C(C)C` [compound 10340] (For-VGA[dL]A[dL]V[dL]W[dL]W[dL]W[dV]W-NHCH2CH2OH), the “H+/Na+ transport activity normalized” value in series [1] worked out at 1.00. Moreover, in series [2], the cell viability/% was 3.4%. The antibacterial activity entry in series [3] is “-”.

As for `CC(C)C[C@@H](NC(=O)[C@H](C)NC(=O)[C@H](NC(=O)[C@H](C)NC(=O)CNC(=O)[C@@H](NC=O)C(C)C)C(C)C)C(=O)N[C@H](C(=O)N[C@@H](C(=O)N[C@@H](Cc1c[nH]c2ccccc12)C(=O)N[C@@H](C(=O)N[C@@H](Cc1c[nH]c2ccccc12)C(=O)N[C@H](CC(C)C)C(=O)N[C@@H](Cc1c[nH]c2ccccc12)C(=O)N[C@H](CC(C)C)C(=O)N[C@@H](Cc1c[nH]c2ccccc12)C(=O)NCCO)C(C)C)[C@H](C)O)C(C)C` [compound 10367] (For-VGA[dV]A[dL]V[dT]W[dV]W[dL]W[dL]W-NHCH2CH2OH), the “H+/Na+ transport activity normalized” value in series [1] was 1.00. Besides, the cell viability/% in series [2] turned out to be 100.0%. In addition, in series [3], the antibacterial activity entry is listed as “-”.

Consider `CC(C)C[C@@H](NC(=O)[C@H](C)NC(=O)CNC(=O)[C@@H](NC=O)C(C)C)C(=O)N[C@@H](C)C(=O)N[C@@H](C(=O)N[C@H](C(=O)N[C@@H](C(=O)N[C@@H](Cc1c[nH]c2ccccc12)C(=O)N[C@@H](C(=O)N[C@@H](Cc1c[nH]c2ccccc12)C(=O)N[C@H](CC(C)C)C(=O)N[C@@H](Cc1c[nH]c2ccccc12)C(=O)N[C@@H](C(=O)N[C@@H](Cc1c[nH]c2ccccc12)C(=O)NCCO)C(C)C)C(C)C)C(C)C)C(C)C)[C@H](C)O` [compound 10415] (For-VGA[dL]A[dT]V[dV]W[dV]W[dL]W[dV]W-NHCH2CH2OH), for which the “H+/Na+ transport activity normalized” value in series [1] was 1.02. The same compound had a cell viability/% in series [2] of 100.0%. Further, the antibacterial activity entry in series [3] is listed as “-”.

On to `CC(C)C[C@@H](NC(=O)[C@H](C)NC(=O)CNC(=O)[C@@H](NC=O)C(C)C)C(=O)N[C@@H](C)C(=O)N[C@H](CC(C)C)C(=O)N[C@H](C(=O)N[C@H](CC(C)C)C(=O)N[C@@H](Cc1c[nH]c2ccccc12)C(=O)N[C@@H](C(=O)N[C@@H](Cc1c[nH]c2ccccc12)C(=O)N[C@@H](C(=O)N[C@@H](Cc1c[nH]c2ccccc12)C(=O)N[C@H](CC(C)C)C(=O)N[C@@H](Cc1c[nH]c2ccccc12)C(=O)NCCO)C(C)C)[C@H](C)O)C(C)C` [compound 10442] (For-VGA[dL]A[dL]V[dL]W[dT]W[dV]W[dL]W-NHCH2CH2OH), for which, in series [1], the “H+/Na+ transport activity normalized” value is on record as 1.15. The cell viability/% in series [2] came out at 100.0%. The antibacterial activity result in series [3] is listed as “-”.

Turning to `CC(C)C[C@@H](NC(=O)[C@H](C)NC(=O)CNC(=O)[C@@H](NC=O)C(C)C)C(=O)N[C@@H](C)C(=O)N[C@H](CC(C)C)C(=O)N[C@H](C(=O)N[C@@H](C(=O)N[C@@H](Cc1c[nH]c2ccccc12)C(=O)N[C@@H](C(=O)N[C@@H](Cc1c[nH]c2ccccc12)C(=O)N[C@H](CC(C)C)C(=O)N[C@@H](Cc1c[nH]c2ccccc12)C(=O)N[C@@H](C(=O)N[C@@H](Cc1c[nH]c2ccccc12)C(=O)NCCO)C(C)C)C(C)C)C(C)C)C(C)C` [compound 10456] (For-VGA[dL]A[dL]V[dV]W[dV]W[dL]W[dV]W-NHCH2CH2OH), in series [1], the “H+/Na+ transport activity normalized” value was determined as 1.13. Also, the cell viability/% in series [2] is on record as 11.8%. Moreover, the antibacterial activity result in series [3] was “+”.

As for `CC(C)C[C@@H](NC(=O)[C@H](C)NC(=O)[C@H](NC(=O)[C@H](C)NC(=O)CNC(=O)[C@@H](NC=O)C(C)C)[C@H](C)O)C(=O)N[C@H](C(=O)N[C@H](CC(C)C)C(=O)N[C@@H](Cc1c[nH]c2ccccc12)C(=O)N[C@H](CC(C)C)C(=O)N[C@@H](Cc1c[nH]c2ccccc12)C(=O)N[C@H](CC(C)C)C(=O)N[C@@H](Cc1c[nH]c2ccccc12)C(=O)N[C@H](CC(C)C)C(=O)N[C@@H](Cc1c[nH]c2ccccc12)C(=O)NCCO)C(C)C` [compound 10497] (For-VGA[dT]A[dL]V[dL]W[dL]W[dL]W[dL]W-NHCH2CH2OH), the “H+/Na+ transport activity normalized” value in series [1] was 1.24. The same compound gave a cell viability/% in series [2] of 100.0%. Also, the antibacterial activity result in series [3] is “-”.

For `CC(C)C[C@@H](NC(=O)[C@H](C)NC(=O)CNC(=O)[C@@H](NC=O)C(C)C)C(=O)N[C@@H](C)C(=O)N[C@H](CC(C)C)C(=O)N[C@H](C(=O)N[C@H](CC(C)C)C(=O)N[C@@H](Cc1c[nH]c2ccccc12)C(=O)N[C@@H](C(=O)N[C@@H](Cc1c[nH]c2ccccc12)C(=O)N[C@H](CC(C)C)C(=O)N[C@@H](Cc1c[nH]c2ccccc12)C(=O)N[C@@H](C(=O)N[C@@H](Cc1c[nH]c2ccccc12)C(=O)NCCO)C(C)C)[C@H](C)O)C(C)C` [compound 10499] (For-VGA[dL]A[dL]V[dL]W[dT]W[dL]W[dV]W-NHCH2CH2OH), the “H+/Na+ transport activity normalized” value in series [1] was determined as 1.14. Besides, in series [2], the cell viability/% stood at 100.0%. The antibacterial activity result in series [3] is given as “-”.
